Results taken from patent US12065436B2, “Cardiac sarcomere inhibitors” (Cytokinetics, Inc., priority 2018, dated 2024).

Molecular target: bovine cardiac myofibrils (full-length cardiac myosin ATPase in the native sarcomere) (Bos taurus (Bovine), UniProt Q9BE39)
Assay: Skinned bovine cardiac myofibril ATPase assay (PK/LDH-coupled)
Type: biochemical
Details: Ca2+ activating to 75% of maximal rate; for CDMF75 IC15: concentration giving 15% inhibition; for IC50: read-out: CDMF75 IC50
Outline: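 Inhibition of steady-state ATPase read at 340 nm through a PK/LDH-coupled NADH system (0.5 mM NADH, 1.5 mM PEP). Detergent-skinned bovine cardiac myofibrils, 1 mg/mL, were tested at pH 6.8 in PIPES/MgCl2 with 50 μM ATP and calcium adjusted to give pCa50 or pCa75 activation.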

bovine cardiac myofibrils (full-length cardiac myosin ATPase in the native sarcomere), sequence (Q9BE39 whole entry): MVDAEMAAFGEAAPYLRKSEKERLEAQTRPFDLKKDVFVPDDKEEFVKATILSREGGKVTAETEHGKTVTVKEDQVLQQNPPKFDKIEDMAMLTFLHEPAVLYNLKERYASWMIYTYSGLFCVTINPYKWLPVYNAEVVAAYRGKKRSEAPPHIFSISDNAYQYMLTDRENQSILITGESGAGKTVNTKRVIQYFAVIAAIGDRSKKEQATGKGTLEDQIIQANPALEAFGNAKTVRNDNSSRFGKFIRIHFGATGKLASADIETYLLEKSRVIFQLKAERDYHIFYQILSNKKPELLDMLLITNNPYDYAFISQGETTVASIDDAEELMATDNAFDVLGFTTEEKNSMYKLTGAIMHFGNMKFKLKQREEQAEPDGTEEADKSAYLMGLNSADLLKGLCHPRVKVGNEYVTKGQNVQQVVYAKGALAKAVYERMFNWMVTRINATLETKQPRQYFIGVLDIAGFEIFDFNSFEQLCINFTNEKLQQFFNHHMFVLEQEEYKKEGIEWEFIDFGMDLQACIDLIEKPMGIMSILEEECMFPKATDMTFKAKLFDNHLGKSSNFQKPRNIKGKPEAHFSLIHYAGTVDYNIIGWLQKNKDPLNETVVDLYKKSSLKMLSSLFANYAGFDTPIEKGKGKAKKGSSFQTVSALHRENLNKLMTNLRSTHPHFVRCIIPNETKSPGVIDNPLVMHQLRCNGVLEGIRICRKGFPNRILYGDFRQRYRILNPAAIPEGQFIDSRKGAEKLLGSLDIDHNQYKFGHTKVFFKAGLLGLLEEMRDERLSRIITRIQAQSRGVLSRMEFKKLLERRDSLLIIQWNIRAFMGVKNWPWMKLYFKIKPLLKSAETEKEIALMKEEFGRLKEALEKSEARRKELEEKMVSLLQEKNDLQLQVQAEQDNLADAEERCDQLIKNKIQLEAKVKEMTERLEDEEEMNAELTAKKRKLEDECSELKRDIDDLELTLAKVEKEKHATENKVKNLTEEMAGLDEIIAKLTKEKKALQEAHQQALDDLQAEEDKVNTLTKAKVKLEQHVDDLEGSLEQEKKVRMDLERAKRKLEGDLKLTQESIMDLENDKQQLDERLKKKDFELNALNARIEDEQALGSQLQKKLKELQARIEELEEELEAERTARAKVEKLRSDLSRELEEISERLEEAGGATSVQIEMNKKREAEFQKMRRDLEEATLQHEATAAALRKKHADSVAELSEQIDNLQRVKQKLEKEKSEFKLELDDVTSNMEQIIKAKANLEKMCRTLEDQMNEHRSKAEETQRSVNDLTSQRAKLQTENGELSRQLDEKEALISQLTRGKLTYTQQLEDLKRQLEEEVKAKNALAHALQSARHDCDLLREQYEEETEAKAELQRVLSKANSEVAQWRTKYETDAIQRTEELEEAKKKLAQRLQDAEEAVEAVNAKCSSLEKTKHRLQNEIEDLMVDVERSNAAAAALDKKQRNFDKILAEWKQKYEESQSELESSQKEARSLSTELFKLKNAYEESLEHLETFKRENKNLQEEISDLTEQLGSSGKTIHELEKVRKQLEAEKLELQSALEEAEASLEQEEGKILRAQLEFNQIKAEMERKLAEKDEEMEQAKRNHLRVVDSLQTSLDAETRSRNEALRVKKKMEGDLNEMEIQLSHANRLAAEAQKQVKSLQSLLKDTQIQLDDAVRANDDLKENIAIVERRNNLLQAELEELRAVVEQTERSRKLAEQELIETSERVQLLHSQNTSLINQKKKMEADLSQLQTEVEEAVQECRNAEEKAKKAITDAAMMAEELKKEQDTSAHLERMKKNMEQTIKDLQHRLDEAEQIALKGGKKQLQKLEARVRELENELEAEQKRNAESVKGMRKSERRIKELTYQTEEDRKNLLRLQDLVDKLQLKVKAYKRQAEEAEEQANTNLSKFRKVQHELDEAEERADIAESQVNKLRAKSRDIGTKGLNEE
bovine cardiac myofibrils (full-length cardiac myosin ATPase in the native sarcomere), sequence (P85100 whole entry partner): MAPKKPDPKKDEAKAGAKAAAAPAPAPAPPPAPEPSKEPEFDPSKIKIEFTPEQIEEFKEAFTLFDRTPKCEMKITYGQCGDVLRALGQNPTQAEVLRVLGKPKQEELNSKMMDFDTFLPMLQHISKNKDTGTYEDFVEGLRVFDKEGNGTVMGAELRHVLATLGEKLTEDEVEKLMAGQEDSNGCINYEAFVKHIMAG
bovine cardiac myofibrils (full-length cardiac myosin ATPase in the native sarcomere), sequence (Q3SZE5 whole entry partner): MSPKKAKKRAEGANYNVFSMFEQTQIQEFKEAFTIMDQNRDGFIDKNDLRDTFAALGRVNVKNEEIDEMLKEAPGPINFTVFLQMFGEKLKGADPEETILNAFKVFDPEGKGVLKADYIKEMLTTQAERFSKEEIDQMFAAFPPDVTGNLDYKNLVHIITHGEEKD

Row | CDMF75 IC15 [µM] | IC50 [µM] | Compound
1 | 0.6 | 2.1 | CCc1nc(-c2ccc3c(c2)CC[C@H]3NC(=O)C(F)F)no1 [Compound 436, (R)-N-(5-(5-ethyl-1,2,4-oxadiazol-3-yl)-2,3-dihydro-1H-inden-1-yl)-2,2-difluoroacetamide]
2 | 8.8 | 34.4 | COCc1nc(-c2ccc3c(c2)CC[C@H]3NC(=O)C(F)F)no1 [Compound 437, (R)-2,2-difluoro-N-(5-(5-(methoxymethyl)-1,2,4-oxadiazol-3-yl)-2,3-dihydro-1H-inden-1-yl)acetamide]
3 | 3.7 | 15.8 | CC(C)c1nc(-c2ccc3c(c2)CC[C@H]3NC(=O)C(F)F)no1 [Compound 438, (R)-2,2-difluoro-N-(5-(5-isopropyl-1,2,4-oxadiazol-3-yl)-2,3-dihydro-1H-inden-1-yl)acetamide]
4 | 1.1 | 4.8 | O=C(N[C@@H]1CCc2cc(-c3noc(C4CC4)n3)ccc21)C(F)F [Compound 439, (R)-N-(5-(5-cyclopropyl-1,2,4-oxadiazol-3-yl)-2,3-dihydro-1H-inden-1-yl)-2,2-difluoroacetamide]
5 | 2.7 | 10.7 | O=C(N[C@@H]1CCc2cc(-c3noc(C4CCC4)n3)ccc21)C(F)F [Compound 440, (R)-N-(5-(5-cyclobutyl-1,2,4-oxadiazol-3-yl)-2,3-dihydro-1H-inden-1-yl)-2,2-difluoroacetamide]
6 | 3.4 | 13.9 | O=C(N[C@@H]1COc2cc(-c3noc(C(F)F)n3)ccc21)C(F)F [Compound 441, (S)-N-(6-(5-(difluoromethyl)-1,2,4-oxadiazol-3-yl)-2,3-dihydrobenzofuran-3-yl)-2,2-difluoroacetamide]
7 | 2.5 | 12.6 | [2H]C([2H])([2H])c1nc(-c2ccc3c(c2)CC[C@H]3NC(=O)C(F)F)no1 [Compound 442, (R)-2,2-difluoro-N-(5-(5-(methyl-d3)-1,2,4-oxadiazol-3-yl)-2,3-dihydro-1H-inden-1-yl)acetamide]
8 | 0.7 | 2.6 | CCc1nc(-c2ccc3c(c2)OC[C@H]3NC(C)=O)no1 [Compound 443, (S)-N-(6-(5-ethyl-1,2,4-oxadiazol-3-yl)-2,3-dihydrobenzofuran-3-yl)acetamide]
9 | 1.6 | 7.9 | CC(=O)N[C@@H]1COc2cc(-c3noc(C(F)F)n3)ccc21 [Compound 444, (S)-N-(6-(5-(difluoromethyl)-1,2,4-oxadiazol-3-yl)-2,3-dihydrobenzofuran-3-yl)acetamide]
10 | 0.8 | 3 | [2H]C([2H])([2H])C(=O)N[C@@H]1COc2cc(-c3noc(CC)n3)ccc21 [Compound 445, (S)-N-(6-(5-ethyl-1,2,4-oxadiazol-3-yl)-2,3-dihydrobenzofuran-3-yl)acetamide-2,2,2-d3]
11 | 0.7 | 2.6 | [2H]C([2H])([2H])C(=O)N[C@@H]1CCc2cc(-c3noc(CC)n3)ccc21 [Compound 446, (R)-N-(5-(5-ethyl-1,2,4-oxadiazol-3-yl)-2,3-dihydro-1H-inden-1-yl)acetamide-2,2,2-d3]
12 | 1.8 | 9.3 | [2H]C([2H])([2H])C(=O)N[C@@H]1COc2cc(-c3noc(C(F)F)n3)ccc21 [Compound 447, (S)-N-(6-(5-(difluoromethyl)-1,2,4-oxadiazol-3-yl)-2,3-dihydrobenzofuran-3-yl)acetamide-2,2,2-d3]
13 | 0.3 | 0.9 | Cc1ncoc1C(=O)N[C@@H]1CCc2cc(-c3noc(C(F)F)n3)ccc21 [Compound 448, (R)-N-(5-(5-(difluoromethyl)-1,2,4-oxadiazol-3-yl)-2,3-dihydro-1H-inden-1-yl)-4-methyloxazole-5-carboxamide]
14 | 0.5 | 1.5 | Cc1nc(-c2ccc3c(c2)CC[C@H]3NC(=O)c2ocnc2C)no1 [Compound 449, (R)-4-methyl-N-(5-(5-methyl-1,2,4-oxadiazol-3-yl)-2,3-dihydro-1H-inden-1-yl)oxazole-5-carboxamide]
15 | 3.2 | 12.4 | CC(=O)N[C@@H]1COc2cc(-c3noc(C)n3)ccc21 [Compound 450, (S)-N-(6-(5-methyl-1,2,4-oxadiazol-3-yl)-2,3-dihydrobenzofuran-3-yl)acetamide]
16 | 2.3 | 7.7 | Cn1nccc1C(=O)N[C@@H]1CCc2cc(C#CC3CC3)ccc21 [Compound 451, (R)-N-(5-(cyclopropylethynyl)-2,3-dihydro-1H-inden-1-yl)-1-methyl-1H-pyrazole-5-carboxamide]
17 | 4.3 | 20.3 | CC#Cc1ccc2c(c1)CC[C@H]2NC(=O)c1ccnn1C [Compound 452, (R)-1-methyl-N-(5-(prop-1-yn-1-yl)-2,3-dihydro-1H-inden-1-yl)-1H-pyrazole-5-carboxamide]

Row | CDMF75 IC15 [µM] | IC50 [µM] | Compound
18 | 0.2 | 0.7 | Cc1ncoc1C(=O)N[C@@H]1COc2cc(-c3noc(C(F)F)n3)ccc21 [Compound 453, (S)-N-(6-(5-(difluoromethyl)-1,2,4-oxadiazol-3-yl)-2,3-dihydrobenzofuran-3-yl)-4-methyloxazole-5-carboxamide]
19 | 0.5 | 1.8 | Cc1nc(-c2ccc3c(c2)OC[C@H]3NC(=O)c2ocnc2C)no1 [Compound 454, (S)-4-methyl-N-(6-(5-methyl-1,2,4-oxadiazol-3-yl)-2,3-dihydrobenzofuran-3-yl)oxazole-5-carboxamide]
20 | 0.2 | 0.7 | CCc1nc(-c2ccc3c(c2)OC[C@H]3NC(=O)c2ocnc2C)no1 [Compound 455, (S)-N-(6-(5-ethyl-1,2,4-oxadiazol-3-yl)-2,3-dihydrobenzofuran-3-yl)-4-methyloxazole-5-carboxamide]
21 | 0.3 | 1.1 | Cc1ncoc1C(=O)N[C@@H]1COc2cc(-c3noc(C4CC4)n3)ccc21 [Compound 456, (S)-N-(6-(5-cyclopropyl-1,2,4-oxadiazol-3-yl)-2,3-dihydrobenzofuran-3-yl)-4-methyloxazole-5-carboxamide]
22 | 1.2 | 5.3 | CC(=O)N[C@@H]1COc2cc(-c3noc(C4CC4)n3)ccc21 [Compound 457, (S)-N-(6-(5-cyclopropyl-1,2,4-oxadiazol-3-yl)-2,3-dihydrobenzofuran-3-yl)acetamide]
23 | 2.0 | 9.2 | CC(=O)N[C@@H]1COc2cc(-c3noc(C4CCC4)n3)ccc21 [Compound 458, (S)-N-(6-(5-cyclobutyl-1,2,4-oxadiazol-3-yl)-2,3-dihydrobenzofuran-3-yl)acetamide]
24 | 0.4 | 1.2 | Cn1nccc1C(=O)N[C@@H]1CCc2cc(-c3noc(C4(C)CC4)n3)ccc21 [Compound 459, (R)-1-methyl-N-(5-(5-(1-methylcyclopropyl)-1,2,4-oxadiazol-3-yl)-2,3-dihydro-1H-inden-1-yl)-1H-pyrazole-5-carboxamide]
25 | 1.3 | 5.5 | Cn1nccc1C(=O)N[C@@H]1CCc2cc(-c3noc(C4CC4(C)C)n3)ccc21 (stereo partly drawn) [Compound 460, N-((1R)-5-(5-(2,2-dimethylcyclopropyl)-1,2,4-oxadiazol-3-yl)-2,3-dihydro-1H-inden-1-yl)-1-methyl-1H-pyrazole-5-carboxamide]
26 | 1.3 | 6.5 | CC(=O)N[C@@H]1COc2cc(-c3noc(C4(C)CC4)n3)ccc21 [Compound 461, (S)-N-(6-(5-(1-methylcyclopropyl)-1,2,4-oxadiazol-3-yl)-2,3-dihydrobenzofuran-3-yl)acetamide]
27 | 0.4 | 1.4 | Cc1ncoc1C(=O)N[C@@H]1COc2cc(-c3noc(C4(C)CC4)n3)ccc21 [Compound 462, (S)-4-methyl-N-(6-(5-(1-methylcyclopropyl)-1,2,4-oxadiazol-3-yl)-2,3-dihydrobenzofuran-3-yl)oxazole-5-carboxamide]
28 | 0.7 | 2.4 | Cc1ncc(C(=O)N[C@@H]2COc3cc(-c4noc(C5CC5)n4)ccc32)o1 [Compound 463, (S)-N-(6-(5-cyclopropyl-1,2,4-oxadiazol-3-yl)-2,3-dihydrobenzofuran-3-yl)-2-methyloxazole-5-carboxamide]
29 | 0.4 | 1.4 | CCc1nc(-c2ccc3c(c2)OC[C@H]3NC(=O)c2cnc(C)o2)no1 [Compound 464, (S)-N-(6-(5-ethyl-1,2,4-oxadiazol-3-yl)-2,3-dihydrobenzofuran-3-yl)-2-methyloxazole-5-carboxamide]
30 | 0.7 | 2.6 | Cc1ncc(C(=O)N[C@@H]2CCc3cc(-c4noc(C5(C)CC5)n4)ccc32)o1 [Compound 465, (R)-2-methyl-N-(5-(5-(1-methylcyclopropyl)-1,2,4-oxadiazol-3-yl)-2,3-dihydro-1H-inden-1-yl)oxazole-5-carboxamide]
31 | 0.8 | 2.9 | Cc1ncc(C(=O)N[C@@H]2COc3cc(-c4noc(C5(C)CC5)n4)ccc32)o1 [Compound 466, (S)-2-methyl-N-(6-(5-(1-methylcyclopropyl)-1,2,4-oxadiazol-3-yl)-2,3-dihydrobenzofuran-3-yl)oxazole-5-carboxamide]
32 | 2.1 | 8.4 | CCc1nc(-c2ccc3c(c2)CC[C@H]3NC(=O)c2coc(COC)n2)no1 [Compound 467, (R)-N-(5-(5-ethyl-1,2,4-oxadiazol-3-yl)-2,3-dihydro-1H-inden-1-yl)-2-(methoxymethyl)oxazole-4-carboxamide]
33 | 6.6 | 39.2 | CCc1nc(-c2ccc3c(c2)CC[C@H]3NC(=O)c2coc(CS(C)(=O)=O)n2)no1 [Compound 468, (R)-N-(5-(5-ethyl-1,2,4-oxadiazol-3-yl)-2,3-dihydro-1H-inden-1-yl)-2-((methylsulfonyl)methyl)oxazole-4-carboxamide]
